Data as given in ChEMBL document CHEMBL2021921 (Bioorg Med Chem Lett, 2012).
Activity calls are given as the source filed them. The calls are words filed in the database; no cut-off is given here. Where a SMILES comes first, the peptide text is derived from it. [ ]: non-standard residue; d: D form. The star is where a group is joined. Adenosine(5'-uronoyl) = Nc1ncnc2c1ncn2[C@@H]1O[C@H](C(=O)*)[C@@H](O)[C@H]1O; X1 = Nc1nccc(-c2ccc(C(=O)*)s2)n1; Ahx = NCCCCCC(=O)O

Experiments:
[1] = Displacement of fluorescent-ARC-583 from recombinant bovine PKAc by fluorescence anisotropy assay; design: species or system Bos taurus
[2] = molecular target: T1, Rho-associated protein kinase 2 (Homo sapiens, UniProt O75116); assay: Displacement of fluorescent-ARC-1042 from His6-tagged recombinant human ROCK2 by fluorescence anisotropy assay
Target sequence in this assay (O75116 whole entry): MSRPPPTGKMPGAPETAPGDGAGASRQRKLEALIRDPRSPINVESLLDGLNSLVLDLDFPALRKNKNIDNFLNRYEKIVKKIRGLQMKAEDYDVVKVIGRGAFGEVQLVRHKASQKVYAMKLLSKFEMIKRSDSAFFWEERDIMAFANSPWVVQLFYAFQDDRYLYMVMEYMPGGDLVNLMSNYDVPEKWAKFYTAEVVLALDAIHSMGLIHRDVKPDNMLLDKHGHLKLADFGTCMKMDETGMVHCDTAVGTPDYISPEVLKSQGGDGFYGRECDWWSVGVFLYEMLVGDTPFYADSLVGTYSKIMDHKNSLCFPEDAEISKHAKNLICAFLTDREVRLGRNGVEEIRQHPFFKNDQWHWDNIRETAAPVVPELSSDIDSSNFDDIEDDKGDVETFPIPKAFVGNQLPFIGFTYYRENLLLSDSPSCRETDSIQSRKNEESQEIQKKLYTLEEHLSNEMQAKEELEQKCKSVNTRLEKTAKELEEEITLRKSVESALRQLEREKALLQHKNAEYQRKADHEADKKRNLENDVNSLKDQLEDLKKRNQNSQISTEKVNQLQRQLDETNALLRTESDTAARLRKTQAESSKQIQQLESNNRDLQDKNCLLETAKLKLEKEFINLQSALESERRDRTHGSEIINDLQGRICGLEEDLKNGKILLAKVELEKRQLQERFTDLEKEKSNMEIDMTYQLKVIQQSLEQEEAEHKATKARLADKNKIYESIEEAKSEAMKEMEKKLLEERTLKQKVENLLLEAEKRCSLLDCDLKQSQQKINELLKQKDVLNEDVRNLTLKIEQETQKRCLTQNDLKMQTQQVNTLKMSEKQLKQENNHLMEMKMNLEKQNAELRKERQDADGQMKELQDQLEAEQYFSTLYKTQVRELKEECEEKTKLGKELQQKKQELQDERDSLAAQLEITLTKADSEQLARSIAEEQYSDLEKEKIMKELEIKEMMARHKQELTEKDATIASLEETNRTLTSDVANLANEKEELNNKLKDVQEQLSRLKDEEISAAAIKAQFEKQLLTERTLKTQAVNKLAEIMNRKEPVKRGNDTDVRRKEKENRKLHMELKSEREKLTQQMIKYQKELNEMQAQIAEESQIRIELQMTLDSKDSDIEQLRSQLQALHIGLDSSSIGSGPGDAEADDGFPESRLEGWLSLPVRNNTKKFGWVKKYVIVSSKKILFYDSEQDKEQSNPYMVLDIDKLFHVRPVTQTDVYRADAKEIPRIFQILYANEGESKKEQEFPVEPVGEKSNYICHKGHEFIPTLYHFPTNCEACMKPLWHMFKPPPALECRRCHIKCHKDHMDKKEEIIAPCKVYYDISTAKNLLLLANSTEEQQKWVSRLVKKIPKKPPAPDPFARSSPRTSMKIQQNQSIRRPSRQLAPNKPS

[3] = Displacement of fluorescent-ARC-1063 from recombinant bovine PKAc by luminescence intensity assay; design: species or system Bos taurus
[4] = molecular target: RAC-gamma serine/threonine-protein kinase (Homo sapiens, UniProt Q9Y243, S472D); assay: Displacement of fluorescent-ARC-583/ARC-1042/ARC-1059 from His6-tagged recombinant human AKT3 S472D mutant by fluorescence anisotropy assay
Chain of RAC-gamma serine/threonine-protein kinase (Q9Y243 2-479 S472D limits assumed): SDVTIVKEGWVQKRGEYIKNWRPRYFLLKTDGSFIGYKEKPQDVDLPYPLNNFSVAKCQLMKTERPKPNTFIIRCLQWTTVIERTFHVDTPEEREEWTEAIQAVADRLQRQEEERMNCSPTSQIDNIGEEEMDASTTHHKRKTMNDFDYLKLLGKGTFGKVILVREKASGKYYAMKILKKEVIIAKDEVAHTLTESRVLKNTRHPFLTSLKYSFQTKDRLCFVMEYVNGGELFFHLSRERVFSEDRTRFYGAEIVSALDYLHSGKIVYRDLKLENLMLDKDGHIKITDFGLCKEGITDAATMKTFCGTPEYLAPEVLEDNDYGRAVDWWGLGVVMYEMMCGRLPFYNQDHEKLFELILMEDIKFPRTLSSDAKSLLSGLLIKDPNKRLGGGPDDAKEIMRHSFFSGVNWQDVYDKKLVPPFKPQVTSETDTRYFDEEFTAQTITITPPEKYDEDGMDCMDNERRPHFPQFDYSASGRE

[5] = molecular target: Ribosomal protein S6 kinase alpha-5 (Homo sapiens, UniProt O75582); assay: Displacement of fluorescent-ARC-583/ARC-1042/ARC-1059 from His6-tagged recombinant human MSK1 by fluorescence anisotropy assay
Chain of Ribosomal protein S6 kinase alpha-5 (O75582 whole entry): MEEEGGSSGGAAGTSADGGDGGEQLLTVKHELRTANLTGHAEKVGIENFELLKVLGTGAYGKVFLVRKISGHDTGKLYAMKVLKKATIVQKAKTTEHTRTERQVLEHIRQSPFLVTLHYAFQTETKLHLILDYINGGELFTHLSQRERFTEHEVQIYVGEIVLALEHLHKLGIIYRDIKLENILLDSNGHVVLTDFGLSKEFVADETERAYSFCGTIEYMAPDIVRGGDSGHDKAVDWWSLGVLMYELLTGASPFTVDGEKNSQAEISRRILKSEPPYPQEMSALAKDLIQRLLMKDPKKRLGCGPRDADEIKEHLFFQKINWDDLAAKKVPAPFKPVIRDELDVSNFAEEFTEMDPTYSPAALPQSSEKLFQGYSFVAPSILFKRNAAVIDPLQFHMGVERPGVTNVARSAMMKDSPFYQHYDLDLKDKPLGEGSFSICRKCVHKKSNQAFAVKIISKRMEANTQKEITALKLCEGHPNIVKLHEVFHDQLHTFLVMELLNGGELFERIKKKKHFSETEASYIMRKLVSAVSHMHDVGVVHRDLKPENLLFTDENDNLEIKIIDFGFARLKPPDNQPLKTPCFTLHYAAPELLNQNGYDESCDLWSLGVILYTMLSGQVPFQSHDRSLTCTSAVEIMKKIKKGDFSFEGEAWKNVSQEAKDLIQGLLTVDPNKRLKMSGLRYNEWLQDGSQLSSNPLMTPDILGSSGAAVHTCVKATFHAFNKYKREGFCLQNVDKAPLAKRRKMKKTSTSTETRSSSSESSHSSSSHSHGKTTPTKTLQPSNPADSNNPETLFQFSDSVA

[6] = molecular target: Ribosomal protein S6 kinase beta-1 (Homo sapiens, UniProt P23443); assay: Displacement of fluorescent-ARC-583/ARC-1042/ARC-1059 from His6-tagged recombinant human p70S6K by fluorescence anisotropy assay
Chain of Ribosomal protein S6 kinase beta-1 (P23443 whole entry): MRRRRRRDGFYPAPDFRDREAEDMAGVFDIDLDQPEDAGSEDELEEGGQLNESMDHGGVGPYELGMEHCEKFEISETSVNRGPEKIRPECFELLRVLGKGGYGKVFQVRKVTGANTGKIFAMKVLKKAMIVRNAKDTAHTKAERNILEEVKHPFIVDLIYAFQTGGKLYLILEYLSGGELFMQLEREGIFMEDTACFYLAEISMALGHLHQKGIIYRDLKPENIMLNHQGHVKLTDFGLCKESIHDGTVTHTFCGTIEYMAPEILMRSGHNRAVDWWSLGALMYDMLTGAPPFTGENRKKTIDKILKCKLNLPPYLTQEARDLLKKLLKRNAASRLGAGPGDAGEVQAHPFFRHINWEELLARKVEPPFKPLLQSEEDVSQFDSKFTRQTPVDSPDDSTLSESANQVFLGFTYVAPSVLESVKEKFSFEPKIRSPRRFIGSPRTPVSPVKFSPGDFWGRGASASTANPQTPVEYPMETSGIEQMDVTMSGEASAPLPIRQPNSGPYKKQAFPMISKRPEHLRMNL

[7] = molecular target: T2, cGMP-dependent protein kinase 1 (Homo sapiens, UniProt Q13976); assay: Displacement of fluorescent-ARC-583/ARC-1042/ARC-1059 from His6-tagged recombinant human PKG1alpha by fluorescence anisotropy assay
T2 sequence (Q13976 whole entry): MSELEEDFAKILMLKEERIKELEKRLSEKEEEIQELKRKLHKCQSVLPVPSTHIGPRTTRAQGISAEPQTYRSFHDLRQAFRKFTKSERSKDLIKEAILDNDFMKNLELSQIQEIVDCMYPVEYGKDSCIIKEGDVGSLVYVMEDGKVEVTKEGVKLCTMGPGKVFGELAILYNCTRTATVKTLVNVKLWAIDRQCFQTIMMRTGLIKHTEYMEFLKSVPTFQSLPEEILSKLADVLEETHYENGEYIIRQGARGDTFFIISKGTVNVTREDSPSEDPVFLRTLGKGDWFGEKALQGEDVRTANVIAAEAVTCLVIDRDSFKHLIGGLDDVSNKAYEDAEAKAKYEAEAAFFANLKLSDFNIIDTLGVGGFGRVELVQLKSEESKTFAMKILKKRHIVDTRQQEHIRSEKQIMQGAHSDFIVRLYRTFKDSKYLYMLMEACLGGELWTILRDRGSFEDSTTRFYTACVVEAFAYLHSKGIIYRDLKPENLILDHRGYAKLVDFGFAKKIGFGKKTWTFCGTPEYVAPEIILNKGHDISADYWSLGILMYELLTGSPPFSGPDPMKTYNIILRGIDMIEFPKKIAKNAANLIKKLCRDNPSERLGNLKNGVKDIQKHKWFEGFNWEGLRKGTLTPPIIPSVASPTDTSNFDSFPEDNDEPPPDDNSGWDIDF

[8] = molecular target: T1, Rho-associated protein kinase 2; assay: Displacement of fluorescent-ARC-583/ARC-1042/ARC-1059 from His6-tagged recombinant human ROCK2 by fluorescence anisotropy assay
Target sequence in this assay (O75116 whole entry): as the sequence (O75116 whole entry) above

[9] = molecular target: T1, Rho-associated protein kinase 2; assay: Displacement of fluorescent-ARC-1063 from His6-tagged recombinant human ROCK2 by luminescence intensity assay
Target sequence in this assay (O75116 whole entry): as above

[10] = Selectivity ratio of Kd for His6-tagged recombinant human ROCK2 to Kd for recombinant bovine PKAc
[11] = Displacement of fluorescent-ARC-583/ARC-1042/ARC-1059 from recombinant bovine PKAc by fluorescence anisotropy assay; design: species or system Bos taurus
[12] = Displacement of fluorescent-ARC-583/ARC-1042/ARC-1059 from His6-tagged recombinant human PKCeta S472D mutant by fluorescence anisotropy assay
Bos taurus = organism: Bos taurus; assay: Displacement of fluorescent-ARC-1063 from recombinant bovine PKAc by fluorescence anisotropy assay
[13] = molecular target: T1, Rho-associated protein kinase 2; assay: Displacement of fluorescent-ARC-1063 from His6-tagged recombinant human ROCK2 by fluorescence anisotropy assay
Target sequence in this assay (O75116 whole entry, looked up): as the sequence (O75116 whole entry) above

## N=C(N)NCCC[C@@H](NC(=O)[C@@H](CCCNC(=N)N)NC(=O)[C@@H](CCCNC(=N)N)NC(=O)[C@@H](CCCNC(=N)N)NC(=O)[C@@H](CCCNC(=N)N)NC(=O)[C@@H](CCCNC(=N)N)NC(=O)CCCCCNC(=O)[C@@H](CCCCN)NC(=O)CNCC(=O)NCCNS(=O)(=O)c1cccc2cnccc12)C(N)=O
[1]
  Kd: 130 nM
  pIC50: 6.07
[2]
  IC50: 34.7 nM
  Kd: 1.5 nM

## O=S(=O)(c1cccc2cnccc12)N1CCCNCC1 [FASUDIL]
[3]
  Kd: 420 nM
  pIC50: 4.26

## NCCCC[C@@H](NC(=O)CCCCCCCN1CCCN(S(=O)(=O)c2cccc3cnccc23)CC1)C(=O)NCCCCCC(=O)N[C@H](CCCN=C(N)N)C(=O)N[C@H](CCCN=C(N)N)C(N)=O
[4]
  IC50: 9.12 µM
  Kd: 7.1 µM
[5]
  IC50: 4570 nM
  Kd: 1600 nM
[6]
  IC50: 3310 nM
  Kd: 860 nM
[7]
  IC50: 1860 nM
  Kd: 630 nM
[8]
  IC50: 631 nM
  Kd: 27 nM
[9]
  IC50: 6760 nM
  Kd: 45 nM

## N=C(N)NCCC[C@@H](NC(=O)[C@@H](CCCNC(=N)N)NC(=O)[C@@H](CCCNC(=N)N)NC(=O)[C@@H](CCCNC(=N)N)NC(=O)[C@@H](CCCNC(=N)N)NC(=O)[C@@H](CCCNC(=N)N)NC(=O)CCCCCNC(=O)[C@@H](CCCCN)NC(=O)CCCCCNC(=O)c1ccc(-c2ccnc(N)n2)s1)C(N)=O ({X1-Ahx}-[dK][Ahx][dR][dR][dR][dR][dR][dR]-NH2)
[3]
  Kd: 0.056 nM
  pIC50: 6.78
[10]
  Selectivity Index: 10

## N=C(N)NCCC[C@@H](NC(=O)[C@@H](CCCNC(=N)N)NC(=O)[C@@H](CCCNC(=N)N)NC(=O)[C@@H](CCCNC(=N)N)NC(=O)[C@@H](CCCNC(=N)N)NC(=O)[C@@H](CCCNC(=N)N)NC(=O)CCCCCNC(=O)[C@@H](CCCCN)NC(=O)CCCCCNC(=O)[C@H]1O[C@@H](n2cnc3c(N)ncnc32)[C@H](O)[C@@H]1O)C(N)=O ({Adenosine(5'-uronoyl)-Ahx}-[dK][Ahx][dR][dR][dR][dR][dR][dR]-NH2)
[3]
  Kd: 0.26 nM
  pIC50: 6.12
[9]
  IC50: 10.5 nM
  Kd: 0.021 nM
[10]
  Selectivity Index: 12

## NCCCC[C@@H](NC(=O)CCCCCNC(=O)[C@H]1O[C@@H](n2cnc3c(N)ncnc32)[C@H](O)[C@@H]1O)C(=O)NCCCCCC(=O)N[C@H](CCCN=C(N)N)C(=O)N[C@H](CCCN=C(N)N)C(N)=O
[2]
  IC50: 162 nM
  Kd: 7 nM
[9]
  IC50: 977 nM
  Kd: 6.4 nM

## N=C(N)NCCC[C@@H](NC(=O)[C@@H](CCCNC(=N)N)NC(=O)CCCCCNC(=O)[C@H](CCCCN)NC(=O)CNCC(=O)NCCNS(=O)(=O)c1cccc2cnccc12)C(N)=O
[1]
  pIC50: > 4.5
[2]
  IC50: 16200 nM
  Kd: 690 nM

## N=C(N)NCCC[C@@H](NC(=O)[C@@H](CCCNC(=N)N)NC(=O)CNCC(=O)NCCNS(=O)(=O)c1cccc2cnccc12)C(N)=O
[2]
  pIC50: > 4.5

## N=C(N)NCCC[C@@H](NC(=O)[C@@H](CCCNC(=N)N)NC(=O)[C@@H](CCCNC(=N)N)NC(=O)[C@@H](CCCNC(=N)N)NC(=O)[C@@H](CCCNC(=N)N)NC(=O)[C@@H](CCCNC(=N)N)NC(=O)CCCCCNC(=O)[C@H]1O[C@@H](n2cnc3c(N)ncnc32)[C@H](O)[C@@H]1O)C(N)=O
[3]
  Kd: 0.25 nM
  pIC50: 6.12

## N=C(N)NCCC[C@@H](NC(=O)[C@@H](CCCNC(=N)N)NC(=O)[C@@H](CCCNC(=N)N)NC(=O)[C@@H](CCCNC(=N)N)NC(=O)[C@@H](CCCNC(=N)N)NC(=O)[C@@H](CCCNC(=N)N)NC(=O)CCCCCNC(=O)[C@@H](CCCCN)NC(=O)CCNC(=O)CNCC(=O)NCCNS(=O)(=O)c1cccc2cnccc12)C(N)=O
[1]
  Kd: 24 nM
  pIC50: 6.79
[2]
  IC50: 17.8 nM
  Kd: 0.7 nM

## N=C(N)NCCC[C@@H](NC(=O)[C@@H](CCCNC(=N)N)NC(=O)[C@@H](CCCNC(=N)N)NC(=O)[C@@H](CCCNC(=N)N)NC(=O)[C@@H](CCCNC(=N)N)NC(=O)[C@@H](CCCNC(=N)N)NC(=O)CCCCCNCCNS(=O)(=O)c1cccc2cnccc12)C(N)=O
[1]
  Kd: 0.53 nM
  pIC50: 8.26
[2]
  IC50: 2.45 nM
  Kd: < 0.5 nM
[4]
  IC50: 0.0724 µM
  Kd: 0.055 µM
[5]
  IC50: 81.3 nM
  Kd: 26 nM
[6]
  IC50: 6.46 nM
  Kd: < 1 nM
[11]
  Kd: < 1 nM
  pIC50: 8.26
[12]
  Kd: 980 nM
  pIC50: 5.76
[7]
  IC50: 41.7 nM
  Kd: 13 nM
[8]
  IC50: 2.45 nM
  Kd: < 0.5 nM

## N=C(N)NCCC[C@@H](NC(=O)[C@@H](CCCNC(=N)N)NC(=O)[C@@H](CCCNC(=N)N)NC(=O)[C@@H](CCCNC(=N)N)NC(=O)[C@@H](CCCNC(=N)N)NC(=O)[C@@H](CCCNC(=N)N)NC(=O)CNCC(=O)NCCNS(=O)(=O)c1cccc2cnccc12)C(N)=O
[1]
  Kd: 120 nM
  pIC50: 6.1
[2]
  IC50: 151 nM
  Kd: 6.4 nM

## N=C(N)NCCC[C@@H](NC(=O)[C@@H](CCCNC(=N)N)NC(=O)CCCCCNC(=O)[C@@H](CCCCN)NC(=O)CCCCCNC(=O)[C@H]1O[C@@H](n2cnc3c(N)ncnc32)[C@H](O)[C@@H]1O)C(N)=O
[1]
  Kd: 8.9 nM
  pIC50: 7.22
[3]
  Kd: 4.5 nM
  pIC50: 4.87
[10]
  Selectivity Index: 0.7

## NCCCC[C@@H](NC(=O)CCCCCNC(=O)c1ccc(-c2ccnc(N)n2)s1)C(=O)NCCCCCC(=O)N[C@H](CCCN=C(N)N)C(=O)N[C@H](CCCN=C(N)N)C(=O)N[C@H](CCCN=C(N)N)C(=O)N[C@H](CCCN=C(N)N)C(=O)N[C@H](CCCN=C(N)N)C(=O)N[C@H](CCCN=C(N)N)C(N)=O ({X1-Ahx}-[dK][Ahx][dR][dR][dR][dR][dR][dR]-NH2)
[9]
  IC50: 2.75 nM
  Kd: 0.0056 nM

## N=C(N)NCCC[C@@H](NC(=O)[C@@H](CCCNC(=N)N)NC(=O)[C@@H](CCCNC(=N)N)NC(=O)[C@@H](CCCNC(=N)N)NC(=O)[C@@H](CCCNC(=N)N)NC(=O)[C@@H](CCCNC(=N)N)NC(=O)CCCCCNC(=O)[C@@H](CCCCN)NC(=O)CCCCCCCN1CCCN(S(=O)(=O)c2cccc3cnccc23)CC1)C(N)=O
Bos taurus
  inhibition: Active
[13]
  inhibition: Active
[3]
  Kd: 3.3 nM
  pIC50: 5.01
[9]
  IC50: 10.2 nM
  Kd: 0.02 nM
[10]
  Selectivity Index: 165

## N=C(N)NCCC[C@@H](NC(=O)[C@@H](CCCNC(=N)N)NC(=O)CCCCCNC(=O)[C@@H](CCCCN)NC(=O)CNCC(=O)NCCNS(=O)(=O)c1cccc2cnccc12)C(N)=O
[1]
  Kd: 2500 nM
  pIC50: 4.78
[2]
  pIC50: > 4.5

## O=S(=O)(NCCNC/C=C/c1ccc(Br)cc1)c1cccc2cnccc12
[3]
  Kd: 17 nM
  pIC50: 4.3

## N=C(N)NCCC[C@@H](NC(=O)[C@@H](CCCNC(=N)N)NC(=O)CCCCCNC(=O)[C@@H](CCCCN)NC(=O)CCCCCCCN1CCCN(S(=O)(=O)c2cccc3cnccc23)CC1)C(N)=O
[11]
  Kd: 83 nM
  pIC50: 6.16
[12]
  pIC50: > 5
[3]
  Kd: 25 nM
  pIC50: 4.12
[10]
  Selectivity Index: 0.56
